Experimental data taken from US20220401514A1, “ANTIMICROBIAL, BACTERIOPHAGE-DERIVED POLYPEPTIDES AND THEIR USE AGAINST GRAM-NEGATIVE AND ACID-FAST BACTERIA” (CONTRAFECT CORPORATION, priority 2019, published 2022).
Where two headings read alike, the source gives them in different places.

Experiments:
[1] = tested on: P. aeruginosa strain PAO1; test: MIC against PAO1 in Mueller-Hinton broth with 50% human plasma or human serum; format: cell-based, Pseudomonas aeruginosa
[2] = tested on: Enterobacter cloacae; test: microbe, parasite or virus in culture; format: cell-based
Outline: (§1)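 Peptide MICs were determined by growth inhibition in CAA medium supplemented with human serum.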

[3] = tested on: Escherichia coli; test: microbe, parasite or virus in culture; format: cell-based
Outline: as §1

[4] = tested on: Acinetobacter baumannii; test: microbe, parasite or virus in culture; format: cell-based
[5] = tested on: carbapenem-resistant bacterial strains; test: organism not typed; format: cell-based
Excerpt: Determination of Minimal Inhibitory Concentrations (MIC).

[6] = tested on: Klebsiella pneumoniae strain 1139; test: Checkerboard assay (FICI) with antibiotics, K. pneumoniae; format: cell-based
Outline: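 Antibiotics in 2-fold dilutions across one axis against Chp peptide dilutions on the other. FICI = MIC in combination/MIC alone for antibiotic plus the same ratio for peptide; minimum FICI used. Synergy at FICI ≤0.5, strongly additive >0.5 to <1, additive 1-<2, antagonistic ≥2.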

[7] = tested on: P. aeruginosa strain CFS-1292; test: Time-kill assay in CAA with 2.5% human serum; format: cell-based, Pseudomonas aeruginosa; conditions: for Loss of bacterial viability: CAA with […] human serum, vs untreated controls
Procedure: Time-Kill Assay of Chp Peptide Activity. […] Exponential phase bacteria were then diluted 1:100 into CAA/HuS and peptide was added at a final concentration of either 1 or 10 μg/mL. Control cultures were included with no peptide added (i.e., buffer control).

[8] = Stability assessment in 100% CAA; format: in vitro ADME; set-up: unit not given beside the values
Procedure: Stability was assessed after incubation in 100% human serum at 37° C. after 10 minutes, 1 hour, and 2 hours.
Stability assessment was further conducted in 100% CAA and rabbit serum using the same methodology discussed above.

[9] = tested on: M. smegmatis; test: 45 hr MIC against M. smegmatis (NTM), Mueller Hinton broth; format: cell-based, Mycobacterium smegmatis
[10] = tested on: M. fortuitum; test: 45 hr MIC against M. fortuitum (NTM); format: cell-based, Mycobacterium fortuitum; conditions: M. fortuitum subsp. Fortuitum da Costa Cruz. ATCC 6841
[11] = tested on: M. avium; test: 45 hr MIC against M. avium (NTM); format: cell-based, Mycobacterium avium; conditions: M. avium Chester ATCC 700898
[12] = tested on: M. scrofulaceum; test: 45 hr MIC against M. scrofulaceum (NTM); format: cell-based, Mycobacterium scrofulaceum; conditions: M. scrofulaceum Prissick and Masson ATCC 19981
[13] = tested on: P. aeruginosa strain CFS-1292; test: MIC at pH 6, pH 7 and pH 8; format: cell-based, Pseudomonas aeruginosa
Procedure: The Chp peptides were further evaluated at varying pH levels. The MIC values were determined at pH 6, pH 7, and pH 8 for 18 different Chp peptides against P. aeruginosa strain CFS-1292. […]

[14] = tested on: P. aeruginosa strain CFS-1292; test: MIC in presence and absence of Survanta pulmonary surfactant; format: cell-based, Pseudomonas aeruginosa
[15] = tested on: Mycobacterium tuberculosis strains
Procedure: MIC values for various Chp peptides were determined using the CLSI method for broth microdilution in 96-well microtiter format.
Next, MIC values for various Chp peptides were determined using the CLSI method above for broth microdilution in 96-well microtiter format for two different Mycobacterium tuberculosis strains. The MIC was determined as explained above for the NTM strains.

[16] = E. cloacae isolates (n per peptide in table)
[17] = E. coli isolates (n per peptide in table)
[18] = A. baumannii isolates (n per peptide in table)

MRLKMARRRYRLPRRRSRRLFSRTALRMHPRNRLRRIMRGGIRF [Chp2]
MIC [1]: 2 µg/mL
Minimal inhibitory concentration, Human Serum [1]: 2 µg/mL
MIC50 [2, 16]: 0.5 µg/mL
MIC100 [2, 16]: 1 µg/mL
MIC Range [2, 16]: 0.125 to 1 µg/mL
MIC ([2]; Enterobacter cloacae (ATCC 13047, MIC control strain), RSC 1240, CAA without human serum): 4 µg/mL
MIC ([2]; Enterobacter cloacae ATCC 13047, CAA supplemented with human serum): 1 µg/mL
MIC ([3]; E. coli (ATCC 25922, MIC control strain), RSC 813, CAA without human serum): 2 µg/mL
MIC ([3]; E. coli (HM346, colon, Crohn's disease), RSC 1212, CAA without human serum): 2 µg/mL
MIC50 [3, 17]: 0.5 µg/mL
MIC100 [3, 17]: 2 µg/mL
MIC Range [3, 17]: 0.25 to 2 µg/mL
MIC ([3]; Escherichia coli ATCC 25922, CAA supplemented with human serum): 1 µg/mL
MIC50 [4, 18]: 0.5 µg/mL
MIC100 [4, 18]: 0.5 µg/mL
MIC Range [4, 18]: 0.25 to 1 µg/mL
MIC ([4]; Acinetobacter baumannii (clinical isolate HSS), RSC 30, CAA without human serum): 2 µg/mL
MIC ([4]; Acinetobacter baumannii (clinical isolate HSS), RSC 32, CAA without human serum): 2 µg/mL
MIC ([4]; Acinetobacter baumannii ATCC BAA 747, CAA supplemented with human serum): 0.125 µg/mL
MIC ([5]; carbapenem-resistant isolate PA19): 0.5 µg/mL
MIC ([5]; carbapenem-resistant isolate PA20): 1 µg/mL
MIC ([5]; carbapenem-resistant isolate PA21): 1 µg/mL
MIC ([5]; carbapenem-resistant isolate PA22): 1 µg/mL
MIC ([5]; carbapenem-resistant isolate PA23): 1 µg/mL
MIC ([5]; carbapenem-resistant isolate PA24): 1 µg/mL
MIC ([5]; carbapenem-resistant isolate WLC-452): 0.5 µg/mL
FIC Index ([6]; Chp peptide combined with Azithromycin): 0.25
FIC Index ([6]; Chp peptide combined with Aztreonam): 0.563
FIC Index ([6]; Chp peptide combined with Colistin): 0.625
FIC Index ([6]; Chp peptide combined with Imipenem): 0.5
FIC Index ([6]; Chp peptide combined with Levofloxacin): 0.5
FIC Index ([6]; Chp peptide combined with Meropenem): 0.313
FIC Index ([6]; Chp peptide combined with Tobramycin): 0.5
Chp peptide FIC ([6]; combined with Azithromycin): 0.125
Chp peptide MIC in checkerboard ([6]; combined with Azithromycin): 0.0625 µg/mL
Chp peptide FIC ([6]; combined with Aztreonam): 0.0625
Chp peptide MIC in checkerboard ([6]; combined with Aztreonam): 0.3125 µg/mL
Chp peptide FIC ([6]; combined with Colistin): 0.5
Chp peptide MIC in checkerboard ([6]; combined with Colistin): 0.25 µg/mL
Chp peptide FIC ([6]; combined with Imipenem): 0.25
Chp peptide MIC in checkerboard ([6]; combined with Imipenem): 0.125 µg/mL
Chp peptide FIC ([6]; combined with Levofloxacin): 0.25
Chp peptide MIC in checkerboard ([6]; combined with Levofloxacin): 0.0625 µg/mL
Chp peptide FIC ([6]; combined with Meropenem): 0.0625
Chp peptide MIC in checkerboard ([6]; combined with Meropenem): 0.0625 µg/mL
Chp peptide FIC ([6]; combined with Tobramycin): 0.25
Chp peptide MIC in checkerboard ([6]; combined with Tobramycin): 0.125 µg/mL
Loss of bacterial viability ([7]; 1 μg/mL, 1 hour): >3.5 log10 CFU/mL
Loss of bacterial viability ([7]; 1 μg/mL, 3 hours): >4 log10 CFU/mL
Loss of bacterial viability ([7]; 1 μg/mL, 24 hours): >4.8 log10 CFU/mL
Loss of bacterial viability ([7]; 10 μg/mL, 1 hour): >3.5 log10 CFU/mL
Loss of bacterial viability ([7]; 10 μg/mL, 3 hours): >4 log10 CFU/mL
Loss of bacterial viability ([7]; 10 μg/mL, 24 hours): >4.8 log10 CFU/mL
bacterial viability after treatment (time-kill) ([7]; 1, 3 and 24 hours, 1 μg/mL and 10 μg/mL, CAA + […] human serum): multi-log fold decreases
MIC (100% CAA) [8]: 0.25
45 hr MIC ([9]; M. smegmatis MC^2 155, Run #1): 4 µg/mL
45 hr MIC ([9]; M. smegmatis MC^2 155, Run #2): 4 µg/mL
45 hr MIC [10]: 2 µg/mL
45 hr MIC [11]: 1 µg/mL
45 hr MIC [12]: 0.5 µg/mL
MIC ([13]; CAA media (pH 7)): 0.25 µg/mL
MIC ([13]; pH 6): 0.25 µg/mL
MIC ([13]; pH 7): 0.5 µg/mL
MIC ([13]; pH 8): 0.5 µg/mL
MIC ([14]; CAA media + 0.19 mg/mL Survanta): 1 µg/mL
MIC ([14]; CAA media + […] Survanta): 1 µg/mL
MIC ([14]; CAA media alone): 0.5 µg/mL
MIC ([15]; Mycobacterium tuberculosis (Zopf) Lehmann and Neumann ATCC 25177): 16 µg/mL
MIC ([15]; Mycobacterium tuberculosis (Zopf) Lehmann and Neumann ATCC 35817): 16 µg/mL
